Entries after “also recorded” stand apart in the source; their conditions may differ.
Key:
mushroom tyrosinase = assay: Mushroom tyrosinase inhibition assay; format: biochemical; conditions: tyrosine substrate; ammonium formate buffer pH 6.4; 37 °C; dopachrome at 420 nm
Experimental: Tyrosinase inhibition activity was evaluated using the method used by Peyrot et al.. […] Then, 20 µL of tyrosine at 4.42 mM in ammonium formate buffer was added. […] IC50 values, corresponding to the concentration required to inhibit 50% of tyrosinase activity, were obtained using GraphPad Prism® software version 6.01.

[1] = DPPH radical scavenging assay; format: biochemical; conditions: in ethanol; DPPH 200 µM; read at 520 nm over 7.5 h; read-out: EC50 for DPPH inhibition
Experimental: The radical scavenging activity of all compounds was tested through 2,2-diphenyl-1-picryhydrazyl (DPPH) assay which determines the EC50 values as previously described. The test consists of adding 190 µL of DPPH solution (200 µM) in ethanol to 10 µL of potential antiradical molecule solution at different concentrations (from 800 to 12.5 µM). The reaction was carried out in 96-well microplates and the disappearance of DPPH radicals was monitored at 520 nm every 5 min during 7.5 h in a multiplate Biotek (Winooski, VT, USA), Epoch 2 spectrophotometer. The EC50 values, corresponding to the concentration needed to reduce half of the initial population of DPPH radicals, were provided by the crossing point of the curves of %DPPH and %reduced DPPH. Curves dots were obtained using an average of the last six measurements for each concentration in Regressi® software version 3.99.

[2] = UV-Vis spectra at 10 µM in ethanol; format: physicochemical; conditions: 1 cm quartz cuvette, band I
Experimental: (§1) UV-Vis spectra were recorded at 10 µM in ethanol on a Cary 60 UV-Vis spectrophotometer by Agilent (Wilmington, DE, USA) in a 1 cm quartz cuvette. The absorbance loss was evaluated by comparison of absorbances at the λmax before and after 1 h of irradiation into a Rayonet® RPR-200 (λ = 300 nm, P = 8.32 W.m^−2, stirring, T = 35 °C) (SNE Ultraviolet Co. Branford, CT, USA) using 14 RPR-3000A lamps.

[3] = Photostability: absorbance loss after UV irradiation; format: physicochemical; conditions: 10 µM in ethanol; 1 h irradiation at 300 nm; absorbance at λmax before vs after
Experimental: as §1

Row | Compound | IC50 (mushroom tyrosinase) [µM] | EC50 [1] [µM] | Maximal absorbance [2] | Loss of absorbance [3] | IC50 for mushroom tyrosinase inhibition (mushroom tyrosinase)
1 | 3,4,4′-trihydroxy-3-methoxy-chalcone [a7] | 2300 ± 100 | 31.5 | 0.38 | 46.2% | 
2 | COc1ccc(C(=O)CC(=O)c2ccc(C(C)(C)C)cc2)cc1 [Avobenzone, avobenzone, reference compound] |  |  | 0.37 | 0.6% | 
3 | COc1ccc(O)c(C(C)(C)C)c1 [BHA, butylated hydroxyanisol, reference compound] |  | 18.5 |  |  | 
4 | CCCCC(CC)COC(=O)C=Cc1ccc(OC)cc1 (stereo not drawn) [Octinoxate, octinoxate, reference compound] |  |  | 0.24 | 26.0% | 
5 | O=C(/C=C/c1ccc(O)cc1)c1ccc(O)cc1 [a1, 4,4′-dihydroxy-chalcone] | 100 ± 10 | > 80 | 0.65 | 77.6% | 
6 | O=C(/C=C/c1ccc(O)c(O)c1)c1ccc(O)cc1 [a2, 3,4,4′-trihydroxy-chalcone] |  | 31.5 |  |  | 
7 | COc1cc(/C=C/C(=O)c2ccc(O)cc2)ccc1O [a5, 4,4′-dihydroxy-3-methoxy-chalcone] | 2300 ± 100 | 71 |  |  | 
8 | COc1cc(C(=O)/C=C/c2ccc(O)cc2)ccc1O [a6, 4,4′-dihydroxy-3′-methoxy-chalcone] | 140 ± 10 | > 80 |  | 16.1% | 
9 | COc1cc(C(=O)/C=C/c2ccc(O)cc2)cc(OC)c1O [a9, 4,4′-dihydroxy-3′,5′-dimethoxy-chalcone] | 130 ± 10 | > 80 |  |  | 
10 | COc1cc(/C=C/C(=O)c2ccc(O)c(OC)c2)ccc1O [a10, 4,4′-dihydroxy-3,3′-dimethoxy-chalcone] | 1800 ± 90 | 43.5 |  |  | 
11 | COc1cc(C(=O)/C=C/c2cc(OC)c(O)c(OC)c2)ccc1O [a11, 4,4′-dihydroxy-3,3′,5-trimethoxy-chalcone] | 7900 ± 400 | 45 | 0.27 |  | 
12 | COc1cc(/C=C/C(=O)c2cc(OC)c(O)c(OC)c2)cc(OC)c1O [a12, 4,4′-dihydroxy-3,3′,5,5′-tetramethoxy-chalcone] | > 10000 | 43 |  |  | 
13 | O=C(CCc1ccc(O)cc1)c1ccc(O)cc1 [b1, 4,4′-dihydroxy-dihydrochalcone] | > 10000 | > 80 | 0.23 | 13.8% | 
14 | O=C(CCc1ccc(O)c(O)c1)c1ccc(O)cc1 [b2, 3,4,4′-trihydroxy-dihydrochalcone] | > 10000 | 35 | 0.21 | 11.4% | 
15 | O=C(CCc1ccc(O)cc1)c1ccc(O)c(O)c1 [b3, 3′,4,4′-trihydroxy-dihydrochalcone] | > 10000 | 16 |  | Negative loss of absorbance; also recorded: higher absorbance higher after 1 h of irradiation | 
16 | O=C(CCc1ccc(O)c(O)c1)c1ccc(O)c(O)c1 [b4, 3,3′,4,4′-tetrahydroxy-dihydrochalcone] | > 10000 | 15 |  | Negative loss of absorbance; also recorded: higher absorbance higher after 1 h of irradiation | 
17 | COc1cc(C(=O)CCc2ccc(O)cc2)ccc1O [b6, 4,4′-dihydroxy-3′-methoxy-dihydrochalcone] | > 10000 | > 80 |  |  | 
18 | COc1cc(C(=O)CCc2ccc(O)c(O)c2)ccc1O [b7, 3,4,4′-trihydroxy-3-methoxy-dihydrochalcone] | > 10000 | 32 |  |  | 
19 | COc1cc(C(=O)CCc2ccc(O)cc2)cc(OC)c1O [b9, 4,4′-dihydroxy-3′,5′-dimethoxy-dihydrochalcone] | > 10000 | > 80 | 0.19 | 67.7% | 
20 | COc1cc(CCC(=O)c2ccc(O)c(OC)c2)ccc1O [b10, 4,4′-dihydroxy-3,3′-dimethoxydihydrochalcone] | 270 ± 10 | 29.5 | 0.13 | 20% | 
21 | COc1cc(C(=O)CCc2cc(OC)c(O)c(OC)c2)ccc1O [b11, 4,4′-dihydroxy-3,3′,5-trimethoxy-dihydrochalcone] | > 10000 | 33 |  | Full loss of absorbance | 
22 | COc1cc(CCC(=O)c2cc(OC)c(O)c(OC)c2)cc(OC)c1O [b12, 4,4′-dihydroxy-3,3′,5,5′-tetramethoxy-dihydrochalcone] | > 10000 | 42.5 |  |  | 

Continued, in another order:

Row | IC50 (mushroom tyrosinase) [µM] | EC50 [1] [µM] | Maximal absorbance [2] | Loss of absorbance [3] | Compound | IC50 for mushroom tyrosinase inhibition (mushroom tyrosinase)
23 |  | 28 |  |  | Cc1cc(C(C)(C)C)c(O)c(C(C)(C)C)c1 [BHT, butylated hydroxytoluene, reference compound] | 
24 | > 10000 | 24.5 | 0.23 | 5.9% | O=C(CCc1ccc(O)cc1)c1c(O)cc(O)cc1O [Phloretin, phloretin] | did not exhibit tyrosinase inhibition activity
25 | > 10000 | 15.5 |  |  | O=C(/C=C/c1ccc(O)cc1)c1ccc(O)c(O)c1 [a3, 3′,4,4′-trihydroxy-chalcone] | did not show any activity
26 |  | 8 | 0.47 | 75.7% | O=C(/C=C/c1ccc(O)c(O)c1)c1ccc(O)c(O)c1 [a4, 3,3′,4,4′-tetrahydroxy-chalcone] | 
27 | > 10000 | 9.5 |  |  | COc1cc(/C=C/C(=O)c2ccc(O)c(O)c2)ccc1O [a8, 3′,4,4′-trihydroxy-3-methoxy-chalcone] | 
28 | 500 ± 30 | 28 |  |  | COc1cc(CCC(=O)c2ccc(O)cc2)ccc1O [b5, 4,4′-dihydroxy-3-methoxy-dihydrochalcone] | 
29 | 70 ± 10 | 11 |  | 0.1% | COc1cc(CCC(=O)c2ccc(O)c(O)c2)ccc1O [b8, 3′,4,4′-trihydroxy-3-methoxy-dihydrochalcone] | 

Reference: paper PMC8064475, “Synthesis of Biobased Phloretin Analogues: An Access to Antioxidant and Anti-Tyrosinase Compounds for Cosmetic Applications” (Antioxidants, 2021)
